Entries after “also recorded” stand apart in the source; their conditions may differ.
Experiments:
[1] = tested on: murine cerebral aneurysm model; assay: Mouse intracranial aneurysm model: aneurysm formation; format: in vivo, mouse (C57BL/6); conditions: controls 57%, n=6 and 7
Experimental: Mouse intracranial aneurysm model. Murine intracranial aneurysms were created in female 8-12 week-old C57BL/6 mice (Charles River Laboratories, Wilmington, MA) following established protocols. Briefly, the left common carotid artery and the right renal artery are ligated to induce hypertension. One week later, an Alzet micro-osmotic pump model 1004 (DURECT Corp, Cupertino, CA) was implanted subdermally to deliver Angiotensin II (Bachem AG, Switzerland) at 1000 ng/kg/min; and 10 μL of 0.8% porcine elastase (Worthington Biochemical Corp, Lakewood, NJ) in normal saline was injected into the right basal cistern using stereotactic coordinates: 1.2 mm rostral of bregma, 0.7 mm lateral of midline and 5.3 mm ventral of the dorsal aspect of the skull. The animals were fed a hypertensive diet with 8% NaCl and 0.12% BAPN (TEKLAD). PBS-treated animals received […] injection of phosphate buffered saline subcutaneously every two days. […] All animal experimentation was performed under the Institutional Animal Care and Use Committee-approved protocols of the University of Pittsburgh.

[2] = tested on: cytokine expression in aneurysm-induced cerebral vasculature; assay: Mouse cytokine arrays (96 cytokines) of aneurysm-induced cerebral vasculature; format: in vivo, mouse (C57BL/6); conditions: treated aneurysmal mice vs PBS-treated aneurysmal mice or sham surgery controls; n=3 each
Experimental: Temporal analysis and comparison with pharmacologic treatment were performed.
Mouse cytokine Arrays. Raybiotech cytokine arrays C1000 (AAM-CYT-1000, Raybiotech, Peachtree Corners, GA) were used to analyze 96 cytokines in aneurysm-induced cerebral vasculature at 2 and 3 weeks (n=3 each) and compared with reparixin-, clopidogrel-treated animals, and with sham surgery animals as controls (n=2).

Structure (SMILES)	aneurysm formation (mice that developed aneurysms) ([1]; 1 mg/kg clopidogrel, p<0.001) [%]	effect on cytokine expression / inflammatory profile in aneurysmal mice (heatmap, FIG. 4A) [2]	aneurysm formation (mice that developed aneurysms) ([1]; 10 mg/kg reparixin, p=0.0163) [%]
COC(=O)[C@H](c1ccccc1Cl)N1CCc2sccc2C1 [clopidogrel]	0	moderate response	–
CC(C)Cc1ccc([C@@H](C)C(=O)NS(C)(=O)=O)cc1 [reparixin]	–	vastly attenuated inflammatory profile; also recorded: robust anti-inflammatory effects	14

— patent US20250027954A1, “METHODS OF DETECTING AND TREATING CEREBRAL ANEURYSMS” (UNIVERSITY OF PITTSBURGH-OF THE COMMONWEALTH SYSTEM OF …, priority 2022, published 2025)
